Measured values reported in patent publication US8927009B2 (AbbVie Inc., priority 2009, dated 2015).

Legend:
[1] = Drug solubility in ternary excipient systems; assay type: physicochemical; parameters: key: ✓: vehicle miscible, or drug fully dissolved in vehicle; x: vehicle immiscible or miscible but turbid, or residual solids present (due to undissolved drug or precipitation); details: 10% salt, 20% free base, listed as free base
Excerpt: Solvents evaluated included Labrafil M 1944 CS™, Imwitor 742™, oleic acid, Capmul PG-8™, Capmul PG-12™, Lauroglycol 90™ (propylene glycol monolaurate, available from Gattefossé) and Phosal 53 MCT™. Surfactants evaluated included Tween 80™, Cremophor RH40™, Gelucire 44/14™ (polyoxyethylene glyceryl laurate, available from Gattefossé) and Labrasol™.

[2] = Solubility in lipid solvents and solvent mixtures in ambient conditions; assay type: physicochemical; details: listed as Parent (Form I)
Description: Solubility of ABT-263 parent (free base, crystalline Form I) and ABT-263 bis-HCl salt was tested in a variety of lipid solvents and solvent mixtures in ambient conditions. Trademarked solvents in this study, unless identified hereinabove, are as follows (substantially equivalent products from other manufacturers can be substituted if available): • Miglyol 810™ of Sasol: caprylic/capric triglycerides; • Capmul MCM™ of Abitec: glyceryl caprylate/caprate; • Captex 300™ of Abitec: caprylic/capric triglycerides; • Labrafil M 2125 CS™ of Gattefossé: polyoxyethylene glyceryl linoleate; • Tween 20™ of Uniqema: polysorbate 20; • Labrasol™ of Gattefossé: polyoxyethylene glyceryl caprylate/caprate; • Cremophor RH40™: polyoxyethyene (40) hydrogenated castor oil. “PE-91” is Phosal 53 MCT™+ethanol, 9:1 by volume. “LOT-343” is Labrafil M 1944 CS™+oleic acid+Tween 80™, 30:40:30 by weight.
In some cases, indicated in Table 4 by an asterisk (*), solubility was initially high but precipitation occurred upon standing.

[3] = biological target: T1, Bcl-w (Homo sapiens, UniProt Q92843); details: cited from earlier work
T1 sequence (Q92843 1-193): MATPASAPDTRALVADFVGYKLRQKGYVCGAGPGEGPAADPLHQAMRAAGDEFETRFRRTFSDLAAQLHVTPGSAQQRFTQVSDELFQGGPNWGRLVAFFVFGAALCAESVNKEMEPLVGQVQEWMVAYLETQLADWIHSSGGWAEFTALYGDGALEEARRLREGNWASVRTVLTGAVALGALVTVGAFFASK

[4] = biological target: Bcl-XL (Homo sapiens, UniProt Q07817); details: cited from earlier work
[5] = biological target: Bcl-2 (Homo sapiens, UniProt P10415); details: cited from earlier work
Bcl-2, sequence (P10415 whole entry): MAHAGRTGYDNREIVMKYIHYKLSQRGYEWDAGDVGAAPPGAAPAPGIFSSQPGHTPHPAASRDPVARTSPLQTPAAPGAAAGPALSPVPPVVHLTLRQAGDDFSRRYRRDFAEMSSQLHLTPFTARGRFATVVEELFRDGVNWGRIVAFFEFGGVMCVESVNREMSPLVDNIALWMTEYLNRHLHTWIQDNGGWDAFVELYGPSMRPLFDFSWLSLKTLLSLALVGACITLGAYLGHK

Bcl-XL, sequence (Q07817 whole entry): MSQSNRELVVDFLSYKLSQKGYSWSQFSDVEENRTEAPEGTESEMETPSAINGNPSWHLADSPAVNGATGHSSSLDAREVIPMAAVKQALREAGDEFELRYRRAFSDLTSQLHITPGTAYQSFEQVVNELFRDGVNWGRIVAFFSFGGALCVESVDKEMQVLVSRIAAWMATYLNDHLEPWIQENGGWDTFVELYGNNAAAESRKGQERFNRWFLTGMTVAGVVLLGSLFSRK

## CC1(C)CCC(c2ccc(Cl)cc2)=C(CN2CCN(c3ccc(C(=O)NS(=O)(=O)c4ccc(N[C@H](CCN5CCOCC5)CSc5ccccc5)c(S(=O)(=O)C(F)(F)F)c4)cc3)CC2)C1 [ABT-263]
[1]; Imwitor 742/Labrafil M 1944 CS/Cremophor RH40 (ILC) 40:40:20 % by weight
  ABT-263 solubility: x
[1]; Imwitor 742/Labrafil M 1944 CS/Cremophor RH40 (ILC) 50:30:20 % by weight
  ABT-263 solubility: x
[1]; Imwitor 742/Labrafil M 1944 CS/Cremophor RH40 (ILC) 50:40:10 % by weight
  ABT-263 solubility: x
[1]; Imwitor 742/Labrafil M 1944 CS/Cremophor RH40 (ILC) 60:30:10 % by weight
  ABT-263 solubility: x
[1]; Imwitor 742/Labrafil M 1944 CS/Labrasol (ILL) 40:40:20 % by weight
  ABT-263 solubility: x
[1]; Imwitor 742/Labrafil M 1944 CS/Labrasol (ILL) 50:30:20 % by weight
  ABT-263 solubility: x
[1]; Imwitor 742/Labrafil M 1944 CS/Labrasol (ILL) 50:40:10 % by weight
  ABT-263 solubility: x
[1]; Imwitor 742/Labrafil M 1944 CS/Labrasol (ILL) 60:30:10 % by weight
  ABT-263 solubility: x
[1]; Labrafil M 1944 CS/Imwitor 742/Tween 80 (LIT) 30:40:30 % by weight
  ABT-263 solubility: x
[1]; Labrafil M 1944 CS/Imwitor 742/Tween 80 (LIT) 30:45:25 % by weight
  ABT-263 solubility: x
[1]; Labrafil M 1944 CS/Imwitor 742/Tween 80 (LIT) 40:30:30 % by weight
  ABT-263 solubility: x
[1]; Labrafil M 1944 CS/Imwitor 742/Tween 80 (LIT) 40:35:25 % by weight
  ABT-263 solubility: x
[1]; Lauroglycol 90/Labrafil M 1944 CS/Labrasol (LLL) 50:40:10 % by weight
  ABT-263 solubility: x
[1]; Lauroglycol 90/Labrafil M 1944 CS/Labrasol (LLL) 60:30:10 % by weight
  ABT-263 solubility: x
[2]; in Labrafil M 2125 CS, ambient conditions
  Solubility: >290 mg/g
[2]; in PE-91 (Phosal 53 MCT + ethanol 9:1 by volume), ambient conditions
  Solubility: >250 mg/g
[2]; in PEG-400, ambient conditions
  Solubility: >200 mg/g
[2]; in corn oil, ambient conditions
  Solubility: <86 mg/g
[2]; in sesame oil, ambient conditions
  Solubility: <75 mg/g

## CN(C)CC[C@H](CSc1ccccc1)Nc1ccc(S(=O)(=O)NC(=O)c2ccc(N3CCN(Cc4ccccc4-c4ccc(Cl)cc4)CC3)cc2)cc1[N+](=O)[O-] [ABT-737]
[3]
  binding affinity: < 1 nM
[4]
  binding affinity: < 1 nM
[5]
  binding affinity: < 1 nM
